According to PMC4913735, “Non‐glycosidic compounds can stimulate both human and mouse iNKT cells” (European Journal of Immunology, 2016):

Key:
[1] = system: hCD1d C1R cells; assay: Tetrameric human iNKT‐cell TCR staining of lipid‐loaded hCD1d C1R cells (flow cytometry); type: cell-based; settings: compared with α‐GalCer; overnight incubation
Experimental: Two analogs of ThrCer, ThrCer 6, and ThrCer 7 were synthesized. […] We first carried out measurements to assess the binding affinity of these ThrCer analogs to human iNKT‐cell TCR (Fig. 1B). Recombinant human CD1d (hCD1d) molecules were refolded in vitro with ThrCer 6 and ThrCer 7 separately and coupled to BIAcore chips, over which refolded human iNKT‐cell TCR was injected at different concentrations 34. […]
Figure 1 ThrCer 6 and ThrCer 7 are potent human iNKT‐cell agonists and display a prolonged interaction with the iNKT‐cell TCR when in complex with human CD1d molecules. […] (B) Equilibrium binding and kinetics measurements of a soluble human iNKT‐cell TCR were assessed for hCD1d molecules refolded with α‐GalCer, ThrCer, ThrCer 6, and ThrCer 7. K d values (μM) were calculated from equilibrium binding. […] After incubating overnight, the degree of iNKT‐cell recognition, assessed either (C) by using a tetrameric human iNKT‐cell TCR by flow cytometry or (D) by the addition of human iNKT cells to cultures and determining the amount of IFN‐γ released in supernatant by ELISA. (E) Human DC maturation was assessed following coculture with human iNKT cells and l μg lipids after 40 h, as determined by CD86 upregulation on DC by flow cytometry. […]

[2] = system: iNKT hybridoma DN32.D3; assay: CD11c+ splenocytes from lipid‐injected Jα18 knockout mice stimulating DN32.D3 (IL‐2 ELISA); type: in vivo; settings: 1 μg i.v.; for Decline in stimulation of DN32.D3 by CD11c+ cells, 64 h compared with 12 h post injection: Jα18 knockout mice, IL‐2
Experimental: Figure 6 Enhanced bioavailability of ThrCer 6 as compared to ThrCer and α‐GalCer. (A) Mouse BMDCs were pulsed for 6 h with 100, 10, or 1 ng/mL of indicated iNKT‐cell agonists. Cells were washed and suspended in tissue culture medium in the absence of iNKT‐cell agonists for up to 24 h. Washed BMDCs were then cocultured with the murine iNKT cell hybridoma DN32.D3. Hundred percentage activation was defined for each iNKT‐cell agonist as the IL‐2 produced by DN32.D3 cocultured with BMDCs that were left with iNKT‐cell agonists throughout the pre coculture period (30 h). Diminished bioavailability is expressed as a percentage of the maximum DN32.D3 activation by each iNKT‐cell agonist. Number of replicates = 4. (B and C) Jα18 knockout mice were injected i.v. with 1 μg of ThrCer 6, α‐GalCer, or vehicle. Twelve hours or 64 h later, CD11c^+‐purified cells were cocultured with 5 × 10^4 DN32.D3 at different ratios. (B) IL‐2 in the supernatant from coculture of DN32.D3 with CD11c^+ cells isolated after 64 h was determined by ELISA. (C) IL‐2 levels of the same culture as percentage of the IL‐2 produced by DN32.D3 coincubated with CD11c^+ cells isolated 12 h after injection of lipids. […] Significance was calculated between α‐GalCer and ThrCer 6. *p < 0.05, **p < 0.01, ***p < 0.001, ****p < 0.0001; Student's t‐test.
To rule out the possibility that the results of these experiments could be modulated by the in vivo killing of CD11c^+ cells by iNKT cells, Jα18 knockout mice, lacking iNKT cells, were injected with ThrCer 6, α‐GalCer or vehicle, and then culled 12 or 64 h later. CD11c^+ cells enriched from the spleens were then coincubated with DN32.D3 for 17 h and IL‐2 production was measured in the supernatant (Fig. 6B and C).
Levels of iNKT‐cell agonists, presented by CD1d on the surface of cells, were assessed by the amount of IL‐2 secreted by iNKT hybridoma DN32.D3 coincubated with the presenting cells for 17–24 h. […] Levels of IL‐2 in the supernatant were determined by ELISA. iNKT‐cell hybridoma DN32.D3 was kindly provided by A. Bendelac 45.

[3] = system: NK cells; assay: In vivo transactivation of NK cells (intracellular IFN‐γ, CD69) by flow cytometry; parameters: species or system mice; settings: 1 μg i.v.; splenocytes at 12, 24 or 33 h
Experimental: Supplementary file EJI-46-1224-s001.pdf: Figure S1. […] Mice were immunized i.v. with 1 μg of lipids and splenocytes stained with anti‐CD11c and anti‐CD40 mAb to determine the extent of maturation by the expression of CD40 on gated DCs (CD11c+ cells) using flow cytometry. (n=3/group) Median Fluorescent Intensity=MFI. Error bars are mean ± SEM. Figure S2. IFN‐γ in serum of mice injected intramuscularly (i.m.) with iNKT cell agonists. C57BL/6 mice (n=4) or syngeneic CD1d knockout Mice (n=2) were injected intramuscularly with α‐GalCer, ThrCer 6 or vehicle. 18 hours later blood samples were tested for IFN‐γ using ELISA. As controls, mice (n=2) were injected intravenously with α‐GalCer or ThrCer 6. Error bars are mean ±SEM. one of two experiment is shown *p=0.0114. Figure S3. Transactivation of NK cells using non‐glycosidic analogues. Mice were immunized i.v. with 1 μg of lipids and sacrificed at 12 h, 24 h or 33 h post injection (n=3/group). Splenocytes were assessed by flow cytometry for the transactivation of NK cells (DX5+NK1.1+CD3‐ cells) using (B) the surface activation marker, CD69, or (A) intracellular IFN‐γ staining. Error bars are mean ± SEM. *p < 0.05. Representative of two independent experiments Figure S4. […] Data relating to numbers of ovalbumin specific T cells was analysed using the following gating stratagy: From top left to right and then bottom left to right. […]

Row | SMILES | Staining of lipid‐loaded hCD1d C1R cells by tetrameric human iNKT‐cell TCR [1] | Decline in stimulation of DN32.D3 by CD11c+ cells, 64 h compared with 12 h post injection [2] | Activation of DN32.D3 by splenic CD11c+ cells 64 h after in vivo injection ([2]; compared with α‐GalCer‐injected mice) | Transactivation of NK cells (intracellular IFN‐γ, CD69) [3]
1 | CCCCCCCCCCCCCCCCCCCCCCCCCC(=O)N[C@@H](CO[C@H]1CC[C@H](O)[C@H](O)[C@H]1O)[C@H](O)[C@H](O)CCCCCCCCCCCCCC [ThrCer 6] | enhanced staining | less than 50% | more potent activators of DN32.D3 cells | comparable transactivation of NK cells
2 | CCCCCCCCCCCCCCCCCCCCCCCCCC(=O)NC(COC1CCCC(O)C(O)C1O)C(O)C(O)CCCCCCCCCCCCCC (stereo not shown) [ThrCer 7] | enhanced staining |  |  | 
3 | CCCCCCCCCCCCCCCCCCCCCCCCCC(=O)N[C@@H](CO[C@H]1O[C@H](CO)[C@H](O)[C@H](O)[C@H]1O)[C@H](O)[C@H](O)CCCCCCCCCCCCCC [α‐GalCer, α‐galactosylceramide, reference compound] |  | more than 90% |  | comparable transactivation of NK cells
